Data taken from patent US20250241902A1, “METHODS, COMPOSITIONS AND SYSTEMS FOR EVALUATION OF VISUAL FUNCTION” (BELITE BIO, INC, priority 2022, published 2025).
“And” between values parts separate entries of the source, which are not always exact repeats. Identical values can stand only once.

Key:
Assay type in all cases: in vivo, human
[1] = test system: adolescent STGD1 patients; assay: Clinical study (Phase 1b/2): ocular and systemic safety and tolerability
Method: (§1) The therapeutic effect of a compound of Formula (I), also known as Tinlarebant, was evaluated in a group of individuals with adolescent STGD. The treatment covered Phase 1b and Phase 2. Phase 1b included a 4-week treatment and a 14-day follow-up. Phase 2 included a 2-year treatment and 1-month follow-up. A total of 13 individuals received the treatment: 5 males and 8 females. All 13 individuals had STGD 1 aged 12-18 years old. All 13 individuals received the treatment of a compound of Formula (I), a RBP4 inhibitor.
(§2) The clinical study evaluated ocular and systemic safety and tolerability of the compound and determined the optimal dose, pharmacokinetics (PK), and […]. The study measured visual improvement by best corrected visual acuity (BCVA) test, self-reported visual questionnaire test, the change in lesion size by FAF, the change in retinal thickness and morphology by SD-OCT, the change in retinal sensitivity by microperimetry, and the change in quantitative AF. In addition, this study evaluated correlation between reduction in RBP4 and rate of lesion growth including change in autofluorescence.
In addition, the treatment was able to maintain 80%-90% RBP4 reduction from baseline throughout the study. All patients received at least 7 months of the treatment. […] Delayed dark adaptation, night vision impairment, and xanthopsia/chromatopsia were the only drug related ophthalmic adverse events.

[2] = test system: adolescent STGD1 patients; assay: Clinical study: best corrected visual acuity (BCVA) test
Description: In some embodiments, visual acuity may be evaluated with a logarithm of the minimum angle of resolution chart (log MAR chart). A log MAR chart comprises rows of letters that are used to estimate visual acuity. Zero log MAR may indicate standard vision, positive values may indicate poor vision and negative values may indicate good vision. In some embodiments, the best corrected visual acuity (BCVA) early treatment diabetic retinopathy study (ETDRS) letters score can be calculated with the following formula: […]
as §1, §2

[3] = test system: adolescent STGD1 patients; assay: Clinical study: quantitative autofluorescence (qAF)
Description: In some embodiments, a method for measuring quantitative autofluorescence (qAF) is used or evaluation of ocular disease or visual function. In some embodiments, the qAF method may incorporate an internal fluorescent reference to account for variable laser power and detector sensitivity. In some embodiments, an intensity of AF may be calculated against the calibrated internal fluorescence reference standard in the optical pathway.
as §1, §2

[4] = test system: adolescent STGD1 patients; assay: Clinical study: lesion size by fundus autofluorescence (FAF; DDAF/QDAF); conditions: for FAF lesion area: subject 3, right eye
Description: Fundus autofluorescence (FAF) imaging is used as an endpoint in clinical trials. FAF is used to detect lesion growth with more than one timepoint of measurements. The change in lesion area measured by FAF can be plotted against time to calculate lesion growth rate, e.g., how fast or slow a patient's macula or retina is degenerating as compared to placebo. FAF imaging is used to compare the rate of anatomical or structural deterioration or change to evaluate a drug or treatment's therapeutic effect, e.g., reduced worsening of the retina degeneration.
In some embodiments, fundus autofluorescence (FAF) is used for evaluation of ocular disease or visual function. In some embodiments, one or more retina images of FAF is used for detection of atrophic areas. In some embodiments, one or more retina images of FAF is used to gain detailed insight into the health of the retinal pigment epithelium (RPE). In some embodiments, one or more images of FAF may be high-contrast retina images. In some embodiments, two types of decreased autofluorescence (DAF) may be quantified. In some embodiments, one type of DAF may be definite DAF (DDAF) which includes an area having a level of darkness being defined as qualitatively definite. In some embodiments, the other type of DAF may be questionable DAF (QDAF) which includes an area having a level of darkness being defined as qualitatively questionable. In some embodiments, the size of decreased autofluorescence (DAF) lesion may be the sum of all DDAF and QDAF. In some embodiments, DAF may be expressed as an area in square millimeters (mm^2).
as §1, §2

[5] = test system: adolescent STGD1 patients; assay: Clinical study: retinal thickness by SD-OCT (CST, MST, OST)
Description: (§3) In some embodiments, spectral domain-optical coherence tomography (SD-OCT) is used for evaluation of ocular disease or visual function. In some embodiments, SD-OCT provides in vivo cross-sectional and […] visualization of the retina and the RPE. In some embodiments, SD-OCT is used to detect the presence of RPE atrophy. In some embodiments, SD-OCT is used to evaluate ellipsoid zone (EZ) defect width. In some embodiments, the EZ line provides information on the integrity of the photoreceptors. In some embodiments, the EZ line provides useful information in early disease. In some embodiments, an image of SD-OCT is used to evaluate the central subfield retina thickness (CST). In some embodiments, an image of SD-OCT is used to evaluate the middle subfield retina thickness (MST). In some embodiments, an image of SD-OCT is used to evaluate the outer subfield retina thickness (OST). The therapeutic effect of a compound of Formula (I), also known as Tinlarebant, was evaluated in a group of individuals with adolescent STGD. The treatment covered Phase 1b and Phase 2. Phase 1b included a 4-week treatment and a 14-day follow-up. Phase 2 included a 2-year treatment and 1-month follow-up. A total of 13 individuals received the treatment: 5 males and 8 females. All 13 individuals had STGD 1 aged 12-18 years old. All 13 individuals received the treatment of a compound of Formula (I), a RBP4 inhibitor. The clinical study evaluated ocular and systemic safety and tolerability of the compound and determined the optimal dose, pharmacokinetics (PK), and […]. The study measured visual improvement by best corrected visual acuity (BCVA) test, self-reported visual questionnaire test, the change in lesion size by FAF, the change in retinal thickness and morphology by SD-OCT, the change in retinal sensitivity by microperimetry, and the change in quantitative AF. In addition, this study evaluated correlation between reduction in RBP4 and rate of lesion growth including change in autofluorescence.

[6] = test system: adolescent STGD1 patients; assay: Clinical study: ellipsoid zone (EZ) defect width by SD-OCT
Description: as §3

[7] = subject 3, left eye, phase 2 baseline
[8] = subject 3, left eye, phase 2 month 6
[9] = subject 11, both eyes, phase 2 week 1 vs week 9
[10] = subject 4, left eye, phase 2 baseline
[11] = subject 4, left eye, phase 2 month 6

CC(=O)N1CCc2c(C(=O)N3CCC(c4ccc(F)c(F)c4C(F)(F)F)CC3)n[nH]c2C1 [Tinlarebant]
safety and tolerability ([1]; 5 mg daily, adolescent STGD1 patients): safe and well tolerated | adverse events requiring discontinuation of treatment ([1]; 13 patients): no adverse events required discontinuation of treatment | vital signs, physical exams, electrocardiogram (ECG), organ functions ([1]; 13 patients): No clinical significant findings | severe adverse events ([1]; 13 patients, at least 7 months of treatment): No severe adverse events | safety and tolerability ([1]; after approximately 7 months of treatment (1 month Phase 1b, 6 months Phase 2)): safe and well tolerated | severity of delayed dark adaptation, night vision impairment, xanthopsia/chromatopsia (drug related ophthalmic adverse events) ([1]; all instances, 13 patients): mild and transient | symptoms in patients with delayed dark adaptation ([1]; human, in vivo): mostly asymptomatic | Delayed Dark Adaptation: Frequency (subject) ([1]; related adverse event): 8/13 | Night Vision Impairment: % Recovered ([1]; related adverse event): 0/1 | Night Vision Impairment: Frequency (subject) ([1]; related adverse event): 1/13 | Xanthopsia/Chromatopsia: Frequency (subject) ([1]; related adverse event): 9/13 | patients with visual improvement in at least one eye (BCVA) ([2]; cohort of 13): 8 out of the 13 | patients with visual improvement in both eyes (BCVA) ([2]; cohort of 13): 2 patients | visual improvement, summary ([2]; cohort, approximately 7 months): Majority of the patients showed visual improvement in at least one eye | BCVA average letters of gain ([2]; left eye, cohort): 1.9±1.32 letters | BCVA average letters of loss ([2]; right eye, cohort): −2.8±1.85 letters | BCVA ETDRS letters gained ([2]; subject 4, both eyes): 3 ETDRS letters | BCVA letters ([2]; subject 4, both eyes, intermediate value in 7-month treatment period): 50 letters | BCVA letters ([2]; subject 4, both eyes, last value in 7-month treatment period): 53 letters | BCVA letters ([2]; subject 4, both eyes, start of 7-month treatment period): 45 letters | BCVA letters gained ([2]; subject 10, both eyes, approximately 7-month treatment): 9 letters | BCVA letters gained ([2]; subject 11, left eye): 6 letters | BCVA change ([2]; subject 11, right eye): no change | autofluorescence (AF) based on quantitative AF ([3]; subject 3, both eyes, especially left, phase 2 week 1 vs week 9): decrease | qDAF value [3, 7]: 351 | qDAF value [3, 8]: 268 | qDAF value ([3]; subject 3, right eye, phase 2 baseline): 335 | qDAF value ([3]; subject 3, right eye, phase 2 month 6): 275 | autofluorescence expansion (FAF), trend ([4]; cohort): trend of preventing or slowing autofluorescence expansion | patients who maintained no DDAF lesion growth ([4]; cohort): 12 of the 13 | patients with no change or reduction in QDAF area in one or both eyes ([4]; cohort): 6 of 11 | autofluorescence expansion (FAF), trend ([4]; cohort, listed as compound of Formula (I)): trend in preventing or slowing autofluorescence expansion | average change in QDAF area ([4]; left eye, cohort): 0.1±0.11 mm^2 | average change in QDAF area ([4]; right eye, cohort): 0.3±0.11 mm^2 | area size of QDAF ([4]; subject 3, either eye, phase 2 week 1 vs week 9): no increase | FAF lesion area ([4]; phase 2 baseline): 2.7 mm^2 | FAF lesion area ([4]; phase 2 month 6): 2.7 mm^2 | QDAF in size ([4]; subject 4, left eye, Phase 2 Baseline vs Month 6 (FIG. 2A)): stabilization | QDAF in size ([4]; subject 4, left or right eye, phase 2 week 1 vs week 9): no increase | QDAF/DDAF change [4, 9]: transition of QDAF to DDAF | patients with improvement (increase in thickness) or no change in OST in both eyes ([5]; cohort): 4 patients | patients with no change or growth in MST in at least one eye ([5]; cohort): 5 patients | patients with no to little change in CST in at least one eye ([5]; cohort): 5 patients | CST change, Left Eye (mean ± SD, μm) ([5]; cohort means, Table 4): −8.83 ± 1.91 μm | CST change, Right Eye (mean ± SD, μm) ([5]; cohort means, Table 4): −10.15 ± 1.5 μm | MST change, Left Eye (mean ± SD, μm) ([5]; cohort means, Table 4): −7.92 ± 2.13 μm | MST change, Right Eye (mean ± SD, μm) ([5]; cohort means, Table 4): −6.77 ± 1.74 μm | OST change, Left Eye (mean ± SD, μm) ([5]; cohort means, Table 4): −7.60 ± 2.62 μm | OST change, Right Eye (mean ± SD, μm) ([5]; cohort means, Table 4): −8.08 ± 2.47 μm | CST average thinning ([5]; left eye, cohort): 7.6±2.14 microns | MST average thinning ([5]; left eye, cohort): 7.2±2.54 microns | OST average thinning ([5]; left eye, cohort): 3.11±3.5 microns | CST average thinning ([5]; right eye, cohort): 10.27±2.2 microns | MST average thinning ([5]; right eye, cohort): 6.27±2.03 microns | OST average thinning ([5]; right eye, cohort): 3.8±3.08 microns | average thickness: center [5, 7]: 97 micron | average thickness: central max [5, 7]: 202 micron | average thickness: central min [5, 7]: 97 micron | average thickness: marker [5, 7]: 97 micron | average thickness: center [5, 8]: 112 micron | average thickness: central max [5, 8]: 216 micron | average thickness: central min [5, 8]: 104 micron | average thickness: marker [5, 8]: 112 micron | change in CST, MST, or OST ([5]; subject 3, overall): little to no change | change of OST ([5]; subject 4, both eyes, especially left, phase 2 week 1 vs week 9): increase | change of MST ([5]; subject 4, either eye, phase 2 week 1 vs week 9): little to no change | average thickness: center [5, 10]: 63 micron | average thickness: central max [5, 10]: 218 micron | average thickness: central min [5, 10]: 57 micron | average thickness: marker [5, 10]: 60 micron | average thickness: center [5, 11]: 58 micron | average thickness: central max [5, 11]: 199 micron | average thickness: central min [5, 11]: 54 micron | average thickness: marker [5, 11]: 56 micron | retinal thickness growth (stated after OST) ([5]; subject 11, both eyes (one value per eye, eye not assigned)): 15 microns and 16 microns | change of OST [5, 9]: increase | change of CST or MST ([5]; subject 11, either eye, phase 2 week 1 vs week 9): little to no change | patients with improvement in EZ defect width (narrowing) in at least one eye ([6]; cohort): 5 patients | patients with improvement in EZ defect width in both eyes ([6]; cohort): 3 patients | EZ defect width, trend ([6]; cohort, summary): trend in reducing EZ defect width | EZ defect width average increase ([6]; left eye, cohort): 0.48±0.26 mm | EZ defect width average increase ([6]; right eye, cohort): 0.39±0.27 mm | ellipsoid zone (EZ) width change ([6]; subject 3, especially left eye, phase 2 week 1 vs week 9): decreased in both eyes | EZ defect width reduction ([6]; subject 3, left eye): 0.20 mm | EZ defect width [6, 7]: 2.91 mm | EZ defect width [6, 8]: 2.71 mm | EZ defect width reduction ([6]; subject 3, right eye): 0.13 mm | EZ defect width ([6]; subject 4, right eye, Phase 2 Baseline): 1.79 mm | EZ defect width ([6]; subject 4, right eye, Phase 2 Month 6): 1.85 mm | EZ defect width reduction ([6]; subject 6, left eye): 0.22 mm | EZ defect width reduction ([6]; subject 6, right eye): 0.27 mm | EZ width change [6, 9]: stabilized | EZ defect width ([6]; subject 11, left eye, Phase 2 Baseline): 2.20 mm | EZ defect width ([6]; subject 11, left eye, Phase 2 Month 6): 2.29 mm
